Test results: ChEMBL document CHEMBL1159174, “Spiroketal glycomimetics: the synthesis of a conformationally restrained Sialyl Lewis X mimic” (Bioorg Med Chem Lett, 1995)
pIC50, pKd: −log10 of the molar value.

Assays:
[1] = molecular target: T1, E-selectin (Homo sapiens) (UniProt P16581); assay: Ability to inhibit the binding to Selectin E immobilized on SPA beads of radiolabeled HL-60 cell membrane was determined at concentration of 10 mM; format: cell membranes
T1 sequence (whole entry): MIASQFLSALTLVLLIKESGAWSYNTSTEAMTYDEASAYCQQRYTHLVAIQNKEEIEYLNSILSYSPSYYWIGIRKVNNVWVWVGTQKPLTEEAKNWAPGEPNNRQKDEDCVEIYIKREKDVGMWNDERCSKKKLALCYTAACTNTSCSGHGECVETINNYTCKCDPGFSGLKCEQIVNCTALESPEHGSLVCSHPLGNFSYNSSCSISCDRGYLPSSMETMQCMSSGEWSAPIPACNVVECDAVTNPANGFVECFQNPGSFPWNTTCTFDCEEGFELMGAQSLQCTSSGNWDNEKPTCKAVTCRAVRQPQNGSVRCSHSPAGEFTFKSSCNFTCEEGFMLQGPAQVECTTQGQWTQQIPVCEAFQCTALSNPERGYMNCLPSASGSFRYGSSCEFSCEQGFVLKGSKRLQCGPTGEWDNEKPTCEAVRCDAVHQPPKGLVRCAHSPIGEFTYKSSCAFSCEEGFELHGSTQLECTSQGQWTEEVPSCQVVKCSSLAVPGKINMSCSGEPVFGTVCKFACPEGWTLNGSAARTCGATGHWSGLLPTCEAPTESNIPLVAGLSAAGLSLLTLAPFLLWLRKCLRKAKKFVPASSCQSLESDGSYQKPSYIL

[2] = molecular target: T2, E-selectin (Homo sapiens, UniProt P16581); assay: Affinity of compound to Selectin E was determined
T2 sequence (P16581 whole entry): T1 sequence (whole entry)

[3] = molecular target: T2, E-selectin; assay: Ability to inhibit the binding to Selectin E immobilized on SPA beads of radiolabeled HL-60 cell membrane was determined; format: cell membranes

Work on CC(=O)NC1C(O)CC(OC2CCO[C@]3(CCC(OC4OC(C)C(O)C(O)C4O)CO3)C2)(C(=O)O)OC1[C@H](O)[C@H](O)CO (stereo partly drawn) yielded an inhibition [1] of 35%.
In the case of CC(=O)N[C@H]1[C@H]([C@H](O)[C@H](O)CO)O[C@@](O[C@H]2[C@@H](O)[C@@H](CO)O[C@@H](O[C@@H]([C@H](O[C@@H]3O[C@@H](C)[C@@H](O)[C@@H](O)[C@@H]3O)[C@H](C=O)NC(C)=O)[C@H](O)CO)[C@@H]2O)(C(=O)O)C[C@@H]1O [SIALYL LEWIS X], the pKd [2] was 3.00 and the pIC50 [3] was 3.52.
